Data taken from paper PMC9612383, “Biological Activity of NHC-Gold-Alkynyl Complexes Derived from 3-Hydroxyflavones” (Pharmaceutics, 2022).

Key:
E. coli = assay: Scanning electron microscopy of treated E. coli; assay type: cell-based; conditions: E. coli treated at 1/2× MIC and MIC, 24 h
Procedure: 500 μL of a E. coli culture (10^7 CFU mL^−^1) were added per well to a 12-well plate and were further treated with the complex 1b at its MIC and 1/2× MIC. A positive control of bacteria without any treatment and a negative control of only culture medium were included, following the same protocol as the rest of the conditions. Then, the plate was incubated at 37 °C with mild agitation for 24 h. After this time, the bacterial suspensions were transfered into 1.5 mL centrifugation tubes. Then, the bacteria were washed and fixed using glutaraldehyde 2.5% in phosphate buffer 10 mM at pH 7.2, with 2 h incubation. Then, bacteria were gradually dehydrated using EtOH solutions at different v/v% (25, 50, 75 and 100). 10 µL of the dehydrated bacteria solution was placed on a 5 × 5 mm Si waffle, left to dry and coated with a thin layer of carbon.

Caco-2 cells [1] = assay: MTT antiproliferative assay; assay type: cell-based, Human; conditions: Caco-2 cell line, 72 h incubation, mean ± SE
Procedure: Human colorectal adenocarcinoma Caco-2 cells were kindly provided by Dr. Edith Brot-Laroche (Universite Pierre et Marie Curie-Paris 6 UMR S872, Les Cordeliers, France) and were maintained in a humidified atmosphere of 5% CO2 at 37 °C in Dulbecco’s Modified Eagles medium (DMEM) (Gibco Invitrogen, Paisley, UK) supplemented with 20% fetal bovine serum, 1% non-essential amino acids, 1% penicillin (1000 U/mL), 1% streptomycin ([…]) and 1% amphotericin (250 U/mL). For treatment, gold complexes were initially dissolved in DMSO to a concentration of 20 mM and then diluted on cell culture without fetal bovine serum to the required work concentrations, which was added 24 h post-seeding. Then, cells were incubated at 37 °C for the required time for each assay.
Cell viability was determined with the 3-(4,5-dimethyl-2-thiazoyl)-2,5-diphenyltetrazolium bromide (MTT) assay as previously described by Mármol et al.. For IC50 calculation, cells were grown in 96-well plates at a density of 4000 cells per well and incubated overnight at standard culture conditions. Then, cells were exposed 72 h to 0–20 μM of each gold complex and changes in absorbance were converted into percentage of growth inhibition in comparison to negative control (DMSO. Absorbance was measured with SPECTROstar Nano (BMG Labtech).

Caco-2 cells [2] = assay: Intracellular ROS levels; assay type: cell-based, Human; conditions: Caco-2 cells, 10, 20 and 40 μM, 1 h incubation; p > 0.05
Procedure: Caco-2 cells were grown in 96-well plates (4000 cells/well) and incubated overnight at 5% CO2 and 37 °C. Then, cells were exposed to the required concentration of gold complex for 1 h and total intracellular ROS levels determination was performed as previously described by Sanchez-de-Diego et al..

Question: With Cn1cc[n+](C)[c]1[Au-][C]#CCOc1c(-c2ccc(Br)cc2)oc2ccccc2c1=O [1b, [Au(Lb)(IMe)] (R = Br; IMe = C5H10N2)] as the molecule, how does the “cell morphology by SEM” value (E. coli) read?
Answer: rougher surface of bacteria, with the presence of wrinkles and creases

Question: And the “size (length) of bacteria by SEM” value (E. coli)?
Answer: shrinking of bacteria, which is concentration dependent

Question: And the IC50 (Caco-2 cells [1])?
Answer: 23 ± 2.42 µM

Question: What about the “reactive oxygen species (ROS) levels” value (Caco-2 cells [2]) of the same molecule?
Answer: no significant changes
